Data: ChEMBL document CHEMBL1201862, “PubChem BioAssay data set” (2004)
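Five concentrations, 48 hours, 96-well plates. Abbreviation: GI50, concentration required for 50% inhibition of growth.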 Active and inactive are the calls of the source. Cut-off read from the data, not from the text of the source: active = GI50 up to about 1.1 µM and inactive = higher. Residues, ends and D or L forms follow the SMILES beside them. *: point of attachment. Cbz = O=C(OCc1ccccc1)*; Boc = CC(C)(C)OC(=O)*; OSu = O=C1CCC(=O)N1O*; Bn = c1ccc(C*)cc1

Columns and labels:
Test in all cases: NCI anticancer screen, dose series, 48 h
IGROV-1 = tested on: IGROV-1
M14 = tested on: M14
NCI-H226 = tested on: NCI-H226
ACHN = tested on: ACHN
OVCAR-5 = tested on: OVCAR-5
OVCAR-4 = tested on: OVCAR-4
COLO 205 = tested on: COLO 205
UACC-257 = tested on: UACC-257
OVCAR-3 = tested on: OVCAR-3
HOP-62 = tested on: HOP-62
KM12 = tested on: KM12
TK-10 = tested on: TK-10
SK-MEL-28 = tested on: SK-MEL-28
DU-145 = tested on: DU-145
MDA-N = tested on: MDA-N
LOX IMVI = tested on: LOX IMVI
786-0 = tested on: 786-0
MOLT-4 = tested on: MOLT-4
HCC 2998 = tested on: HCC 2998
SR = tested on: SR

Measured: GI50

c1cnc(N2CCN(Cc3c[nH]c4ccccc34)CC2)nc1
inactive: IGROV-1 > 100 µM | M14 45.4 µM | NCI-H226 58.7 µM | ACHN 27.8 µM | OVCAR-5 > 100 µM | OVCAR-4 52 µM | COLO 205 25.4 µM | UACC-257 28.8 µM | OVCAR-3 52.2 µM | HOP-62 56.1 µM | KM12 20.4 µM | TK-10 22.9 µM | SK-MEL-28 > 100 µM | DU-145 23.9 µM | MDA-N 25.1 µM | LOX IMVI 45.8 µM | 786-0 14.3 µM | MOLT-4 36.6 µM | HCC 2998 18.6 µM

CC[N+]1(C)CCC(O)(/C=C/c2ccc(OC)cc2)C(C(=O)/C=C/c2ccc(OC)cc2)C1 (stereo not drawn)
inactive: IGROV-1 21.8 µM | M14 10.4 µM | NCI-H226 28 µM | ACHN 8.36 µM | OVCAR-5 21.2 µM | OVCAR-4 24.7 µM | COLO 205 2.58 µM | UACC-257 17.4 µM | OVCAR-3 19.7 µM | HOP-62 19.3 µM | KM12 4.13 µM | TK-10 2.96 µM | SK-MEL-28 15.3 µM | DU-145 14.2 µM | MDA-N 12.3 µM | LOX IMVI 2.64 µM | 786-0 3.13 µM | MOLT-4 1.94 µM | HCC 2998 20 µM

CC1=CC(=O)/C(=C/NC(=S)Nc2ccc(S(N)(=O)=O)cc2)C(=O)O1
inactive: IGROV-1 > 100 µM | M14 > 100 µM | NCI-H226 > 100 µM | ACHN > 100 µM | OVCAR-5 > 100 µM | OVCAR-4 > 100 µM | COLO 205 > 100 µM | UACC-257 > 100 µM | OVCAR-3 > 100 µM | HOP-62 > 100 µM | KM12 > 100 µM | TK-10 > 100 µM | SK-MEL-28 > 100 µM | DU-145 > 100 µM | MDA-N > 100 µM | LOX IMVI > 100 µM | 786-0 > 100 µM | MOLT-4 > 100 µM | HCC 2998 > 100 µM

O=C1CSC(c2ccccc2)N1c1ccc(-c2ccc(-n3c(-c4ccccc4)nc4ccccc4c3=O)cc2)cc1 (stereo not drawn)
inactive: IGROV-1 > 100 µM | M14 50 µM | ACHN 53 µM | OVCAR-5 > 100 µM | OVCAR-4 30.5 µM | COLO 205 38.2 µM | UACC-257 > 100 µM | OVCAR-3 46.5 µM | HOP-62 > 100 µM | KM12 26.2 µM | TK-10 57.9 µM | SK-MEL-28 > 100 µM | DU-145 85.1 µM | MDA-N 64.9 µM | SR 19.5 µM | LOX IMVI 50.7 µM | 786-0 55 µM | MOLT-4 19.6 µM | HCC 2998 34.8 µM

CC1(C)CC(=O)c2c(nc3ccc4ccccc4c3c2-c2ccc(NC(=O)CCC(=O)Nc3ccc(-c4c5c(nc6ccc7ccccc7c46)CC(C)(C)CC5=O)cc3)cc2)C1
inactive: IGROV-1 > 100 µM | M14 > 100 µM | NCI-H226 > 100 µM | ACHN > 100 µM | OVCAR-5 > 100 µM | COLO 205 > 100 µM | UACC-257 > 100 µM | OVCAR-3 > 100 µM | HOP-62 > 100 µM | KM12 > 100 µM | TK-10 > 100 µM | SK-MEL-28 > 100 µM | DU-145 > 100 µM | MDA-N > 100 µM | SR > 100 µM | LOX IMVI > 100 µM | 786-0 > 100 µM | MOLT-4 > 100 µM

C[C@H](CSC(=O)c1ccccc1)C(=O)N1c2ccccc2C[C@H]1C(=O)O
inactive: IGROV-1 > 100 µM | NCI-H226 > 100 µM | ACHN > 100 µM | OVCAR-5 > 100 µM | OVCAR-4 > 100 µM | COLO 205 63 µM | UACC-257 > 100 µM | OVCAR-3 > 100 µM | HOP-62 > 100 µM | KM12 > 10 µM | TK-10 > 100 µM | SK-MEL-28 > 100 µM | DU-145 > 100 µM | MDA-N > 100 µM | SR 61.1 µM | 786-0 > 10 µM | MOLT-4 75.7 µM | HCC 2998 91.8 µM

CC(C)(C)OC(=O)NC(Cc1ccc(OCc2ccccc2)cc1)C(=O)NC(CCCCNC(=O)OCc1ccccc1)C(=O)NC(CCCCNC(=O)OCc1ccccc1)C(=O)ON1C(=O)CCC1=O (stereo not drawn) (Boc-Tyr(Bn)-Lys(Cbz)-Lys(Cbz)-OSu; configuration not given here)
inactive: IGROV-1 31.5 µM | M14 > 100 µM | ACHN 38.5 µM | OVCAR-5 36.7 µM | OVCAR-4 60.7 µM | COLO 205 31.1 µM | UACC-257 > 100 µM | HOP-62 > 100 µM | KM12 46.1 µM | TK-10 > 100 µM | SK-MEL-28 30.6 µM | DU-145 88.5 µM | MDA-N 16.6 µM | SR > 100 µM | 786-0 20.8 µM | MOLT-4 > 100 µM
